# According to patent publication US6117661A, “Mutant mono-oxygenase cytochrome P450cam” (BG plc, priority 1995, dated 2000):
# Values joined by “and” are separate entries in the source; they are usually repeats but may differ in a detail not shown here. Equal values may be shown once. Read-outs that look alike come from different tables or passages of the source.
# Assays:
# [1] = target: T1, P450cam active site mutant Y96F (also C334A) (Pseudomonas putida, UniProt P00183, C335A/Y97F); type: biochemical, P. putida; conditions: for Products(%) Y96F: label = product
# T1 construct: reconstituted with putidaredoxin and putidaredoxin reductase
# Protocol: (§1) A buffered solution (50 mM Tris.HCI, pH 7.4), typically 3 ml in volume, containing 10 uM putidaredoxin, 2 uM putidaredoxin reductase, 1 uM cytochrome P-450cam mono-oxygenase (wild-type or mutant), 200 mM KCI, 50 ug/ml bovine liver catalase (Sigma), and 1 mM target organic compound such as cyclohexylbenzene (added as a 0.1 M stock in ethanol) was preincubated at 30° C. for 5 minutes. The enzymatic reaction was initiated by adding NADH to a total concentration of 2 mM. Further four aliquots of NADH (to increase the NADH concentration by 1 mM each time) were added in intervals of 10 minutes, and 30 minutes into the incubation one aliquot of substrate (to increase the concentration by 1 mM) was also added. The reaction was quenched after 60 minutes by adding 0.5 ml chloroform and vortexing the mixture. The phases were separated by centrifugation (4000 g) at 4° C. The chloroform layer was analyzed by gas chromatography.
# (§2) For many substrate compounds such as cyclohexylbenzene for which not all the P-450cam-mediated oxidation products are commercially available, the chloroform extracts are evaporated to dryness under a stream of nitrogen. The residues were extracted with hexane and the oxidation products separated by high performance liquid chromatography, eluting with a hexane/isopropanol gradient. The purified products were then identified by mass spectroscopy and particularly nuclear magnetic resonance spectroscopy.
# (§3) The NADH concentration can be monitored at 340 nm and, in all cases, more substrates and NADH are added during the incubation.
# [2] = target: T2, P450cam active site mutant Y96L (also C334A) (Pseudomonas putida, UniProt P00183, C335A/Y97L); type: biochemical, P. putida; conditions: substrate cyclohexylbenzene; for Products (%) Y96L: label = product
# T2 construct: reconstituted with putidaredoxin and putidaredoxin reductase
# Protocol: as §1, §2, §3
# [3] = target: T3, P450cam active site mutant Y96A (also C334A) (Pseudomonas putida, UniProt P00183, C335A/Y97A); type: biochemical, P. putida; conditions: for Products(%) Y96A: label = product
# T3 construct: reconstituted with putidaredoxin and putidaredoxin reductase
# Protocol: as §1, §2, §3
# [4] = target: T4, P450cam active site mutant Y96V (also C334A) (Pseudomonas putida, UniProt P00183, C335A/Y97V); type: biochemical, P. putida; conditions: substrate cyclohexylbenzene; for Products (%) Y96V: label = product
# T4 construct: reconstituted with putidaredoxin and putidaredoxin reductase
# Protocol: as §1, §2, §3
# P450cam WT = target: T5, P450cam WT (Pseudomonas putida, UniProt P00183); assay: Product distribution following oxidation of substrates (GC); type: biochemical, P. putida; conditions: for Products (%) WT: label = product
# T5 construct: reconstituted with putidaredoxin and putidaredoxin reductase
# Protocol: as §1, §2, §3
# Wild type P450cam [5] = target: T6, Wild type P450cam (Pseudomonas putida, UniProt P00183); assay: Turnover rate measured as NADH consumption rate; type: biochemical, P. putida; conditions: small alkanes; background about 0.07
# Protocol: as §1, §3
# (§4) Turnover rate measured as NADH consumption rate
# (§5) (nmole NADH/nmole P450cam/s).
# [6] = target: T7, P450cam Y96A (also contains the C334A mutation) (Pseudomonas putida, UniProt P00183, C335A/Y97A); type: biochemical, P. putida; conditions: small alkanes
# T7 construct: reconstituted with putidaredoxin and putidaredoxin reductase
# Protocol: as §1, §3, §4, §5
# Wild type P450cam [7] = target: T6, Wild type P450cam; type: binding, P. putida; conditions: for Wild type ΔSpin high/low: -- = no shift, nd = not determined
# P450cam Mutant Y96A = P450cam Mutant Y96A (Pseudomonas putida, UniProt P00183, C335A/Y97A); type: binding, P. putida
# [8] = -- = no shift, nd = not determined
# T1 sequence (P16640 whole entry): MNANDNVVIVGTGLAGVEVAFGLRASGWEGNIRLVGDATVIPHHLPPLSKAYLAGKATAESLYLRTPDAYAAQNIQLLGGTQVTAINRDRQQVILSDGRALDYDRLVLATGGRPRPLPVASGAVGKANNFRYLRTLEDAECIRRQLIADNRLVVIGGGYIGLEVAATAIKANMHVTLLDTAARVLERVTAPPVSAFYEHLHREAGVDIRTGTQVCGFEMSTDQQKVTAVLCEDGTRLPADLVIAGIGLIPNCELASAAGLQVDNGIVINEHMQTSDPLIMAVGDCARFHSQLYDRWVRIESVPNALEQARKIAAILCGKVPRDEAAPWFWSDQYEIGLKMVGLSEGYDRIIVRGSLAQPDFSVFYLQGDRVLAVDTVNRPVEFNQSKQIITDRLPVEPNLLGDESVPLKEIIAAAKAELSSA
# T1 sequence (P00183 2-415 Y97F/C335A): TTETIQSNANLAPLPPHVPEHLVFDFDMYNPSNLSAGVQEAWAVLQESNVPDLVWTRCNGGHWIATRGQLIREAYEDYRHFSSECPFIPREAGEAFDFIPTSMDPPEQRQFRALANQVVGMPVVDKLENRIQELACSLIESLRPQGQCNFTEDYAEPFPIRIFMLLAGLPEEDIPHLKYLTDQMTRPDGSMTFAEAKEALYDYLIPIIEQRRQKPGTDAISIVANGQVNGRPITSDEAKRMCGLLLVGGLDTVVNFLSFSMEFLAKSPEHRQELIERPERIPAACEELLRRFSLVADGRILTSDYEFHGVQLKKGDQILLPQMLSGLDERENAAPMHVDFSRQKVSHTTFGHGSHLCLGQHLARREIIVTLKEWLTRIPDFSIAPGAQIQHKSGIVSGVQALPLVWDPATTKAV
# T1 sequence (P00259 whole entry, further chain): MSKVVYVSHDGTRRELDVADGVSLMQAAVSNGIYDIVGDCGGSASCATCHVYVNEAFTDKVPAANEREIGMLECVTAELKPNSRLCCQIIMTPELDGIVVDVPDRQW
# T6 sequence (P00183 whole entry): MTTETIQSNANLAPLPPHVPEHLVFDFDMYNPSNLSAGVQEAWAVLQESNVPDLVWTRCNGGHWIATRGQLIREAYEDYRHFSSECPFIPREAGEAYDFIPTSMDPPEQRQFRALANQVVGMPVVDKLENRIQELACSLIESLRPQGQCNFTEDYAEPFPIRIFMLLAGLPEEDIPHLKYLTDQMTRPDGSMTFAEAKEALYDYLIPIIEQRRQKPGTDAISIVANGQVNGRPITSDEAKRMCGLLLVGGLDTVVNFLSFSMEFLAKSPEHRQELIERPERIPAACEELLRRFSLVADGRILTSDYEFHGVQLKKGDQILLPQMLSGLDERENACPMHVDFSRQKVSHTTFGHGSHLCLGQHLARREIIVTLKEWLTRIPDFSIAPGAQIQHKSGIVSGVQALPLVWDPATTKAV
# T6 sequence (P00259 whole entry, further chain): as the sequence (P00259 whole entry, further chain) above
# T6 sequence (P16640 whole entry, further chain): as the sequence (P16640 whole entry) above
# T4 sequence (P00183 2-415 Y97V/C335A): as the sequence (P00183 2-415 Y97F/C335A) above, with F96V counted along it
# T4 sequence (P00259 whole entry, further chain): as the sequence (P00259 whole entry, further chain) above
# T4 sequence (P16640 whole entry, further chain): as the sequence (P16640 whole entry) above
# Chain of P450cam Mutant Y96A (P00183 2-415 Y97A/C335A): as the sequence (P00183 2-415 Y97F/C335A) above, with F96A counted along it
# Chain of P450cam Mutant Y96A (P16640 whole entry, further chain): as the sequence (P16640 whole entry) above
# Chain of P450cam Mutant Y96A (P00259 whole entry, further chain): as the sequence (P00259 whole entry, further chain) above
# T7 sequence (P00183 2-415 Y97A/C335A): as the sequence (P00183 2-415 Y97F/C335A) above, with F96A counted along it
# T7 sequence (P16640 whole entry, further chain): as the sequence (P16640 whole entry) above
# T7 sequence (P00259 whole entry, further chain): as the sequence (P00259 whole entry, further chain) above
# T3 sequence (P00183 2-415 Y97A/C335A): as the sequence (P00183 2-415 Y97F/C335A) above, with F96A counted along it
# T3 sequence (P00259 whole entry, further chain): as the sequence (P00259 whole entry, further chain) above
# T3 sequence (P16640 whole entry, further chain): as the sequence (P16640 whole entry) above
# T2 sequence (P00183 2-415 Y97L/C335A): as the sequence (P00183 2-415 Y97F/C335A) above, with F96L counted along it
# T2 sequence (P16640 whole entry, further chain): as the sequence (P16640 whole entry) above
# T2 sequence (P00259 whole entry, further chain): as the sequence (P00259 whole entry, further chain) above
# T5 sequence (P00259 whole entry): as the sequence (P00259 whole entry, further chain) above
# T5 sequence (P16640 whole entry, further chain): as the sequence (P16640 whole entry) above
# T5 sequence (P00183 whole entry): as the sequence (P00183 whole entry) above
structure (smiles),measurement,setting,value
"OC1CCCC(c2ccccc2)C1 (single isomer, unassigned) [3-ol]",Products(%) Y96F,[1]; substrate cyclohexylbenzene,54%
same,Products (%) Y96L,[2],38%
same,Products(%) Y96A,[3]; substrate cyclohexylbenzene,20%
same,Products (%) Y96V,[4],28%
same,Products (%) WT,P450cam WT; substrate cyclohexylbenzene,43%
"CC(C)CC(C)(C)C [2,2,4-trimethyl pentane]",Turnover rate (NADH consumption rate) Wild type,Wild type P450cam [5],0.9 nmole NADH/nmole P450cam/s
same,Turnover rate (NADH consumption rate) Y96A,[6],5.3 nmole NADH/nmole P450cam/s
"CCC(C)(C)C [2,2-dimethyl butane]",Turnover rate (NADH consumption rate) Wild type,Wild type P450cam [5],background
same,Turnover rate (NADH consumption rate) Y96A,[6],14.0 nmole NADH/nmole P450cam/s
"CCCC(C)(C)C [2,2-dimethyl pentane]",Turnover rate (NADH consumption rate) Wild type,Wild type P450cam [5],5.2 nmole NADH/nmole P450cam/s
same,Turnover rate (NADH consumption rate) Y96A,[6],12.8 nmole NADH/nmole P450cam/s
"CC(C)C(C)C [2,3-dimethyl butane]",Turnover rate (NADH consumption rate) Wild type,Wild type P450cam [5],background
same,Turnover rate (NADH consumption rate) Y96A,[6],16.8 nmole NADH/nmole P450cam/s
"CC(C)CC(C)C [2,4-dimethyl pentane]",Turnover rate (NADH consumption rate) Wild type,Wild type P450cam [5],0.2 nmole NADH/nmole P450cam/s
same,Turnover rate (NADH consumption rate) Y96A,[6],12.6 nmole NADH/nmole P450cam/s
CCCCC(C)O (centres unmarked) [2-hexanol],Products(%) Y96F,[1]; substrate hexane,24%
same,Products(%) Y96A,[3]; substrate hexane,26%
CCCCC(C)=O [2-hexanone],Products(%) Y96F,[1]; substrate hexane,10%
same,Products(%) Y96A,[3]; substrate hexane,15%
CCC(C)C [2-methyl butane],Turnover rate (NADH consumption rate) Wild type,Wild type P450cam [5],background
same,Turnover rate (NADH consumption rate) Y96A,[6],4.6 nmole NADH/nmole P450cam/s
CCCCCC(C)C [2-methyl heptane],Turnover rate (NADH consumption rate) Wild type,Wild type P450cam [5],background
same,Turnover rate (NADH consumption rate) Y96A,[6],2.1 nmole NADH/nmole P450cam/s
CCCCC(C)C [2-methyl hexane],Relative activity (WT = 1) Y96F,[1]; substrate 2-methyl hexane,2.3
same,Relative activity (WT = 1) Y96A,[3]; substrate 2-methyl hexane,2.6
same,Turnover rate (NADH consumption rate) Wild type,Wild type P450cam [5],background
same,Turnover rate (NADH consumption rate) Y96A,[6],10.6 nmole NADH/nmole P450cam/s
CCCC(C)C [2-methyl pentane],Turnover rate (NADH consumption rate) Wild type,Wild type P450cam [5],3.8 nmole NADH/nmole P450cam/s
same,Turnover rate (NADH consumption rate) Y96A,[6],11.7 nmole NADH/nmole P450cam/s
CCCCC(C)(C)O [2-methyl-2-hexanol],Products(%) Y96F,[1]; substrate 2-methyl hexane,72%
same,Products(%) Y96A,[3]; substrate 2-methyl hexane,74%
CCCC(O)C(C)C (centres unmarked) [2-methyl-3-hexanol],Products(%) Y96F,[1]; substrate 2-methyl hexane,7%
same,Products(%) Y96A,[3]; substrate 2-methyl hexane,4%
CCC(CC)CC [3-ethyl pentane],Turnover rate (NADH consumption rate) Wild type,Wild type P450cam [5],background
same,Turnover rate (NADH consumption rate) Y96A,[6],16.2 nmole NADH/nmole P450cam/s
CCCC(O)CC (centres unmarked) [3-hexanol],Products(%) Y96F,[1]; substrate hexane,50%
same,Products(%) Y96A,[3]; substrate hexane,32%
CCCC(=O)CC [3-hexanone],Products(%) Y96F,[1]; substrate hexane,16%
same,Products(%) Y96A,[3]; substrate hexane,28%
CCC(C)CC [3-methyl pentane],Turnover rate (NADH consumption rate) Wild type,Wild type P450cam [5],1.3 nmole NADH/nmole P450cam/s
same,Turnover rate (NADH consumption rate) Y96A,[6],14.2 nmole NADH/nmole P450cam/s
OC1C=C(c2ccccc2)CCC1 (centres unmarked) [3-ol (B)],Products(%) Y96A,[3]; substrate phenylcyclohexene,75%
same,Products (%) WT,P450cam WT; substrate phenylcyclohexene,76%
O=C1C=C(c2ccccc2)CCC1 [3-one (A)],Products(%) Y96A,[3]; substrate phenylcyclohexene,25%
same,Products (%) WT,P450cam WT; substrate phenylcyclohexene,24%
CCCC(C)CCC [4-methyl heptane],Turnover rate (NADH consumption rate) Wild type,Wild type P450cam [5],1.4 nmole NADH/nmole P450cam/s
same,Turnover rate (NADH consumption rate) Y96A,[6],10.2 nmole NADH/nmole P450cam/s
CC(C)CCC(C)O (centres unmarked) [5-methyl-2-hexanol],Products(%) Y96F,[1]; substrate 2-methyl hexane,5%
same,Products(%) Y96A,[3]; substrate 2-methyl hexane,8%
CC(=O)CCC(C)C [5-methyl-2-hexanone],Products(%) Y96F,[1]; substrate 2-methyl hexane,16%
same,Products(%) Y96A,[3]; substrate 2-methyl hexane,14%
O[C@H]1CC[C@@H](c2ccccc2)CC1 [Cis-4-ol],Products(%) Y96F,[1]; substrate cyclohexylbenzene,13%
same,Products (%) Y96L,[2],16%
same,Products(%) Y96A,[3]; substrate cyclohexylbenzene,45%
same,Products (%) Y96V,[4],23%
same,Products (%) WT,P450cam WT; substrate cyclohexylbenzene,12%
c1ccc(C2CCCCC2)cc1 [Cyclohexylbenzene],Total products Y96F,[1]; substrate cyclohexylbenzene,1.1 area/10^5
same,Total products Y96L,[2],10.4 area/10^5
same,Total products Y96A,[3]; substrate cyclohexylbenzene,7.4 area/10^5
same,Total products Y96V,[4],12.5 area/10^5
same,Total products WT,P450cam WT; substrate cyclohexylbenzene,0.8 area/10^5
same,Wild type Vs DTT,Wild type P450cam [7],20
same,Wild type ΔSpin high/low,Wild type P450cam [7],20
same,Mutant Y96A ΔSpin high/low,P450cam Mutant Y96A; [8],80
CCCCCC [Hexane],Relative activity (WT = 1) Y96F,[1]; substrate hexane,18.2
same,Relative activity (WT = 1) Y96A,[3]; substrate hexane,25.5
same,Turnover rate (NADH consumption rate) Wild type,Wild type P450cam [5],background
same,Mutant Y96A Vs DTT,P450cam Mutant Y96A,60 and 40
same,Mutant Y96A ΔSpin high/low,P450cam Mutant Y96A,70 and 60
same,Turnover rate (NADH consumption rate) Y96A,[6],6.0 nmole NADH/nmole P450cam/s
OC1CCCC(c2ccccc2)C1 (centres unmarked) [L or D 3-ol],Products(%) Y96F,[1]; substrate cyclohexylbenzene,27%
same,Products (%) Y96L,[2],23%
same,Products(%) Y96A,[3]; substrate cyclohexylbenzene,20%
same,Products (%) Y96V,[4],39%
same,Products (%) WT,P450cam WT; substrate cyclohexylbenzene,20%
O[C@H]1CC[C@H](c2ccccc2)CC1 [Trans-4-ol],Products(%) Y96F,[1]; substrate cyclohexylbenzene,6%
same,Products (%) Y96L,[2],23%
same,Products(%) Y96A,[3]; substrate cyclohexylbenzene,15%
same,Products (%) Y96V,[4],10%
same,Products (%) WT,P450cam WT; substrate cyclohexylbenzene,25%
C1CCCCCC1 [cycloheptane],Turnover rate (NADH consumption rate) Wild type,Wild type P450cam [5],4.4 nmole NADH/nmole P450cam/s
same,Turnover rate (NADH consumption rate) Y96A,[6],42.5 nmole NADH/nmole P450cam/s
CCCCCCC [n-Heptane],Wild type Vs DTT,Wild type P450cam [7],5
same,Wild type ΔSpin high/low,Wild type P450cam [7],5
same,Turnover rate (NADH consumption rate) Wild type,Wild type P450cam [5],2.7 nmole NADH/nmole P450cam/s
same,Mutant Y96A Vs DTT,P450cam Mutant Y96A,40
same,Mutant Y96A ΔSpin high/low,P450cam Mutant Y96A; [8],60
same,Turnover rate (NADH consumption rate) Y96A,[6],4.4 nmole NADH/nmole P450cam/s
CCCCCCCC [n-Octane],Wild type Vs DTT,Wild type P450cam [7],5
same,Turnover rate (NADH consumption rate) Wild type,Wild type P450cam [5],background
same,Mutant Y96A Vs DTT,P450cam Mutant Y96A,45
same,Mutant Y96A ΔSpin high/low,P450cam Mutant Y96A; [8],80
same,Turnover rate (NADH consumption rate) Y96A,[6],5.8 nmole NADH/nmole P450cam/s
CCCCC [n-Pentane],Wild type Vs DTT,Wild type P450cam [7],5
same,Turnover rate (NADH consumption rate) Wild type,Wild type P450cam [5],background
same,Mutant Y96A Vs DTT,P450cam Mutant Y96A,40
same,Mutant Y96A ΔSpin high/low,P450cam Mutant Y96A; [8],55
same,Turnover rate (NADH consumption rate) Y96A,[6],5.8 nmole NADH/nmole P450cam/s
